What was measured:
[1] = system: zebrafish embryo; test: Teratogenicity test using zebrafish embryo; format: in vivo; details: zebrafish embryos exposed from 6 hours after fertilization, cultured at 28° C. for five days, 0.1% dimethyl sulfoxide
Procedure: Test Example 4. Teratogenicity Test Using Zebrafish Embryo
Fertilized eggs obtained by mating zebrafish were cultured in a medium (0.3× Danieau's solution) at 28° C. until 6 hours after fertilization. Thereafter, the embryo was transferred to a medium into which the compound expressed by General Formula (1) according to the present invention dissolved in dimethyl sulfoxide was added, and cultured at 28° C. for five days. The concentration of dimethyl sulfoxide in the medium was 0.1%. 12 embryos were tested in each test concentration of the present invention.
Observation sites: notochord, tail, somite, eye, otolith, jaw, heart, blood vessel, abdomen, fin, etc.
From the results of these observations, the presence or absence of teratogenicity risk of the compound expressed by General Formula (1) according to the present invention and six compounds (Compound Nos. 4-10, 1-67, 1-1, 8-125, and 8-22, and a compound encompassed by the claims of Patent Literature 1 (Comparative Compound 4)) disclosed in the aforementioned Patent Literature 1 as the comparative compounds was determined.
It is noted that the teratogenicity test using zebrafish embryo is known to have good high predictivity to the teratogenicity test using the mammals (Reference Literature: Reproductive Toxicology 2012, (33), 155-164).

[2] = system: Small Brown Planthopper (Laodelphax Striatellus); test: Test of insecticidal efficacy against Small Brown Planthopper (rice seedling dip); format: in vivo; details: 192 h, read-out: corrected insect mortality judgement against small brown planthopper
Procedure: Test Example 2. Test of Insecticidal Efficacy Against Small Brown Planthopper (Laodelphax Striatellus)
The compound or salt thereof expressed by General Formula (1) according to the present invention was dispersed in water and the dispersion was diluted to 50 ppm in the form of a reagent, after which rice plants raised from seeds (variety: Nipponbare) were soaked in the reagent for 30 seconds and dried under wind, and then placed in glass test tubes, each of which was inoculated with 10 third-instar larvae of small brown planthoppers and sealed with cotton, and eight days after the inoculation, the number of live insects and that of dead insects were examined and the corrected insect mortality was calculated based on the formula below, and judgement was made according to the criteria below.
[formula] [formula] Criteria A—Corrected insect mortality: 100% B—Corrected insect mortality: 99% to 90% C—Corrected insect mortality: 89% to 80% D—Corrected insect mortality: 79% to 50%

SMILES	Teratogenicity risk [1]	mortality at 50 ppm [2]
CN1C(=O)c2nn(-c3cccnc3)cc2Oc2ncc(C(F)(F)F)cc21 [Comparative Compound 1]	Yes	–
COCN1C(=O)c2nn(-c3cccnc3)cc2Oc2ccccc21 [Comparative Compound 2]	Yes	–
O=C1Nc2ccccc2Oc2cn(-c3cccnc3)nc21 [Comparative Compound 3]	Yes	–
COCN1C(=O)c2nn(-c3cccnc3)cc2Oc2cc(OC(F)(F)F)ccc21 [Comparative Compound 4]	Yes	–
CN1C(=O)c2nn(-c3cccnc3)cc2Oc2cc(OC(F)(F)F)ccc21 [Comparative Compound 5]	Yes	–
COCN1C(=O)c2nn(-c3cccnc3)cc2Oc2c(F)cccc21 [Comparative Compound 6]	Yes	–
COCN1C(=O)c2nn(-c3cccnc3)cc2Oc2ncccc21 [Compound No. 1-1, 9-(methoxymethyl)-2-(pyridin-3-yl)-2H-pyrazolo[3,4-f]pyrido[2,3-b][1,4]oxazepine-10(9H)-one]	No	100%

Reference: patent publication US12302903B2, “Oxazepinone derivative, agricultural/horticultural insecticide containing the same, and method for using the same” (priority 2019, dated 2025)
